Results on seven molecules are retold here after PubChem BioAssay (NCI).

Holding throughout (assay): NCI-60 cell line screen, 48 h
Assay [1] concerns NCI-H460 lung.
For assay [2], the system named is U251 CNS.
The subject of assay [3] is HS 578T breast.
For assay [4], the system named is SF-268 CNS.
The subject of assay [5] is HCT-116 colon.
In assay [6] the test system is K-562 leukemia.
In assay [7] the test system is ACHN renal.
Assay [8] relates to OVCAR-3 ovarian.
The test system of assay [9] is NCI/ADR-RES ovarian.
In assay [10] the test system is SN12C renal.

Each structure is given as a SMILES string.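 Values below derive from 48-hour exposures of cells grown in 96-well plates, with endpoints linearly interpolated between the two concentrations bracketing the appropriate inhibition level. GI50 marks 50% less growth. TGI is the concentration that stops growth completely.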

`CS(=O)(=O)N(CC(=O)O)Cc1ccccc1`: the TGI in assay [1], in assay [2], in assay [3], in assay [4], in assay [5] and in [6] was more than 100 µM throughout. For the same molecule, the TGI in assay [7], in [8], in assay [9] and in assay [10] was more than 100 µM throughout.
Take `CCNC(=O)c1ccc2c(c1)nc(-c1ccc(Cl)cc1)n2-c1cc(C(C)(C)C)[nH]n1`: the GI50 in [1] is 3.53 µM; in assay [2] it was 3.28 µM; in [3], 2.58 µM; in [4], 3.42 µM; in assay [5], 3.17 µM; in assay [6], 3.35 µM. Further, the GI50 is 3.48 µM in assay [7], 2.49 µM in [8], 2.54 µM in [9] and 3.79 µM in assay [10]. The TGI in assay [1] is 12.5 µM; in [2], 12.2 µM; in assay [3], 7.6 µM; in assay [4], 15.4 µM; in assay [5], 12.3 µM; in assay [6], 16.8 µM. Moreover, the TGI in [7] was found to be 13.2 µM; in assay [8], 7.77 µM; in [9], 9.33 µM; in assay [10], 70 µM.
On to `O=C(NCc1cccs1)OC1CC2CCC1C2` (stereo not given), for which the TGI in [1], in [2], in assay [3], in [4], in assay [5] and in [6] was more than 100 µM throughout. The TGI in assay [7], in [8], in assay [9] and in assay [10] was more than 100 µM each time.
In the case of `COC(=O)c1cc(NC(=O)CN(CCN(CC(=O)O)CC(=O)Nc2ccc(O)c(C(=O)OC)c2)CC(=O)O)ccc1O`, the GI50 in assay [1] is 28.3 µM; in [2], 43.8 µM; in assay [3], more than 100 µM; in assay [4], 43.2 µM; in assay [5], 43.9 µM; in assay [6] it was 96.4 µM. Further, the GI50 in assay [7] is 36.7 µM; in [8] it was more than 100 µM; in assay [9], more than 100 µM; in assay [10] it was 63.8 µM. For the same molecule, the TGI in assay [1], in assay [2], in assay [3], in assay [4], in assay [5] and in assay [6] was more than 100 µM throughout. Moreover, the TGI in [7], in assay [8], in [9] and in assay [10] was more than 100 µM each time.
As to `CS(=O)(=O)c1ccc(-c2[nH]c3ccc(F)cc3c2/C=N/NC(N)=S)cc1`, the GI50 in assay [1] is 2.28 µM; in [2] it was 0.777 µM; in [3], 0.293 µM; in assay [4], 2.42 µM; in assay [5], 0.437 µM; in assay [6] it was 0.532 µM. For the same molecule, the GI50 in [7] was 2.17 µM; in assay [8] it was 0.446 µM; in assay [9], 1.17 µM; in assay [10], 3.14 µM. Also, the TGI in assay [1] was more than 100 µM; in assay [2], more than 100 µM; in assay [3] it was 7.74 µM; in [4], more than 100 µM; in [5], more than 100 µM; in [6] it was 41.2 µM. In addition, the TGI was more than 100 µM in assay [7], 12.1 µM in [8], more than 100 µM in assay [9] and more than 100 µM in assay [10].
As for `O=C(O)CP(=O)(c1ccccc1)c1ccccc1.O=C(O)CP(=O)(c1ccccc1)c1ccccc1.[Cd]`, the GI50 was 3.9 µM in assay [1]; 14.3 µM in assay [2]; 19.4 µM in [3]; 37.3 µM in assay [4]; 20 µM in assay [5]; 15.1 µM in [6]. Also, the GI50 in [7] was 16.1 µM; in [8], 2.56 µM; in assay [9] it was 21.9 µM; in [10] it was 16.4 µM. For the same molecule, the TGI was more than 100 µM in [1]; 28.9 µM in assay [2]; more than 100 µM in assay [3]; more than 100 µM in assay [4]; 47.3 µM in [5]; 36.8 µM in [6]. The TGI stood at 30.4 µM in assay [7], 15.4 µM in assay [8], 52.2 µM in assay [9] and 31.1 µM in assay [10].
On to `O=c1cc(-c2ccccc2)nc2cc(-c3ccco3)[nH]n12`, for which the GI50 in [1] was 4.49 µM; in assay [2], 4.74 µM; in [3] it was 7.1 µM; in [4], 14.9 µM; in assay [5], 15.7 µM; in [6] it was 4.06 µM. Also, the GI50 was 22.6 µM in assay [7], 10.8 µM in assay [8], 11.4 µM in [9] and 18.5 µM in assay [10]. Besides, the TGI in [1] was 20.6 µM; in [2] it was more than 100 µM; in assay [3], 37.3 µM; in [4] it was more than 100 µM; in assay [5] it was more than 100 µM; in assay [6] it was more than 100 µM. The TGI was more than 100 µM in assay [7], 37.1 µM in [8], 50.9 µM in [9] and more than 100 µM in assay [10].
